Experimental data: article PMC10649961, “Novel Mitochondria-Targeted Amphiphilic Aminophosphonium Salts and Lipids Nanoparticles: Synthesis, Antitumor Activity and Toxicity” (Nanomaterials, 2023)
≈ marks a conversion by molar mass, not a printed value. Read-outs that look alike come from different tables or passages of the source.

How the values were obtained:
[1] = test system: Candida albicans ATCC 10231; test: Antimicrobial activity, serial microdilutions, Ca; type: cell-based; set-up: key to Minimum Inhibitory Concentration (MIC) / Minimum bactericidal and fungicidal concentrations (MBC, MFC): – means non-active
Method: (§1) The antimicrobial activity of test compounds was determined by serial microdilutions in 96-well plates using Mueller-Hinton broth for bacterial culture and Sabouraud broth for yeast culture. Cultures of Gram-positive bacteria were used in the experiment: Staphylococcus aureus ATCC 6538 P FDA 209P, Bacillus cereus ATCC 10702 NCTC 8035, Enterococcus faecalis ATCC 29212; Gram-negative bacteria: Escherichia coli ATCC 25922, Pseudomonas aeruginosa ATCC 9027; and yeast: Candida albicans ATCC 10231, purchased from the State Collection of Pathogenic Microorganisms and Cell Cultures “SCPM-Obolensk” (Obolensk, Russia). Methicillin-resistant strains of S. aureus (MRSA) were isolated from patients with chronic tonsillitis (MRSA-1) and sinusitis (MRSA-2) in the bacteriological laboratory of the Republican Clinical Hospital (Kazan, Russia). The experiments were carried out in triplicate.

[2] = test system: Escherichia coli ATCC 25922; test: Antimicrobial activity, serial microdilutions, Ec; type: cell-based; set-up: key to Minimum Inhibitory Concentration (MIC) / Minimum bactericidal and fungicidal concentrations (MBC, MFC): – means non-active
Method: as §1

MRSA-2 = test: Antimicrobial activity, serial microdilutions, MRSA-2; type: cell-based, S. aureus; conditions: Staphylococcus aureus; for MIC: read-out: Minimum Inhibitory Concentration (MIC); for MBC: read-out: Minimum bactericidal and fungicidal concentrations (MBC, MFC)
Method: as §1

[3] = test system: Staphylococcus aureus ATCC 6538 P FDA 209P; test: Antimicrobial activity, serial microdilutions, Sa; type: cell-based; conditions: Staphylococcus aureus; for MIC: read-out: Minimum Inhibitory Concentration (MIC); for MBC: read-out: Minimum bactericidal and fungicidal concentrations (MBC, MFC)
Method: as §1

[4] = test system: Pseudomonas aeruginosa ATCC 9027; test: Antimicrobial activity, serial microdilutions, Pa; type: cell-based; set-up: key to Minimum Inhibitory Concentration (MIC) / Minimum bactericidal and fungicidal concentrations (MBC, MFC): – means non-active
Method: as §1

[5] = test system: Bacillus cereus ATCC 10702 NCTC 8035; test: Antimicrobial activity, serial microdilutions, Bc; type: cell-based; set-up: key to Minimum bactericidal and fungicidal concentrations (MBC, MFC): – means non-active; conditions: for MIC: read-out: Minimum Inhibitory Concentration (MIC)
Method: as §1

[6] = test system: Enterococcus faecalis ATCC 29212; test: Antimicrobial activity, serial microdilutions, Ef; type: cell-based; set-up: key to Minimum Inhibitory Concentration (MIC) / Minimum bactericidal and fungicidal concentrations (MBC, MFC): – means non-active
Method: as §1

MRSA-1 = test: Antimicrobial activity, serial microdilutions, MRSA-1; type: cell-based, S. aureus; set-up: key to Minimum Inhibitory Concentration (MIC) / Minimum bactericidal and fungicidal concentrations (MBC, MFC): – means non-active
Method: as §1

Hep G2 [7] = test: cells; conditions: Homo sapiens, HepG2, 48 h, read-out: Cytotoxic Effects (IC50)
PANC-1 [8] = conditions: calculated relative to the cell line WI38 (a)
M-HeLa [9] = conditions: calculated relative to the cell line WI38 (a)
DU-145 [10] = test: cells; conditions: Homo sapiens, DU-145, 48 h
PANC-1 [11] = test: cells; conditions: Homo sapiens, PANC-1, 48 h, read-out: Cytotoxic Effects (IC50)
HuTu 80 [12] = test: cells; conditions: Homo sapiens, HuTu80, 48 h, read-out: Cytotoxic Effects (IC50)
A549 = test: cells; conditions: Homo sapiens, A549, 48 h, read-out: Cytotoxic Effects (IC50)
PC3 [13] = conditions: calculated relative to the cell line WI38 (a)
MCF-7 [14] = conditions: calculated relative to the cell line WI38 (a)
Hep G2 [15] = conditions: reference normal cell line not marked at the place (ns cells)
PC3 [16] = test: cells; conditions: Homo sapiens, PC-3, 48 h, read-out: Cytotoxic Effects (IC50), PC3, MTT assay, 48 h
T98G = test: cells; conditions: Homo sapiens, 48 h, read-out: Cytotoxic Effects (IC50)
MCF-7 [17] = test: cells; conditions: Homo sapiens, MCF7, 48 h, read-out: Cytotoxic Effects (IC50)
DU-145 [18] = conditions: reference normal cell line not marked at the place (ns cells)
SK-OV-3 [19] = test: cells; conditions: Homo sapiens, SK-OV-3, 48 h, read-out: Cytotoxic Effects (IC50)
SK-OV-3 [20] = conditions: calculated relative to the cell line WI38 (a)
HuTu 80 [21] = conditions: calculated relative to the cell line WI38 (a)
M-HeLa [22] = test: cells; conditions: Homo sapiens, 48 h, read-out: Cytotoxic Effects (IC50)

`CC(=O)N1CCN(c2ccc(OCC3COC(Cn4ccnc4)(c4ccc(Cl)cc4Cl)O3)cc2)CC1` (stereo not shown) [Ketoconazole, reference compound] was tested. Which MIC ([1]; Candida albicans, ATCC10231, read-out: Minimum Inhibitory Concentration (MIC)) did it give?
Its MIC is 7.3 ± 0.5 µM (≈ 3.88 µg/mL).

And the MBC ([1]; Candida albicans, ATCC10231, read-out: Minimum bactericidal and fungicidal concentrations (MBC, MFC))?
The MBC was 7.3 ± 0.5 µM (≈ 3.88 µg/mL).

And the “Minimum Inhibitory Concentration (MIC)” value [2]?
Its value is “–”.

Which MIC (MRSA-2) does the source give for `CCn1cc(C(=O)O)c(=O)c2cc(F)c(N3CCNCC3)cc21` [Norfloxacin, reference compound] here?
Its MIC is 7.5 ± 0.5 µM (≈ 2.4 µg/mL).

And the MBC (MRSA-2)?
The MBC was 7.5 ± 0.6 µM (≈ 2.4 µg/mL).

And the “Minimum Inhibitory Concentration (MIC)” value ([1]; Ca)?
Its value is “–”.

What about the MIC [3] of the same compound?
Its MIC is 7.5 ± 0.5 µM (≈ 2.4 µg/mL).

What about the MBC [3] of the same compound?
Its MBC is 7.5 ± 0.6 µM (≈ 2.4 µg/mL).

And the MIC ([2]; Escherichia coli, ATCC25922, read-out: Minimum Inhibitory Concentration (MIC))?
Its MIC is 4.7 ± 0.02 µM (≈ 1.5 µg/mL).

And the MBC ([2]; Escherichia coli, ATCC25922, read-out: Minimum bactericidal and fungicidal concentrations (MBC, MFC))?
The MBC was 24.4 ± 2.3 µM (≈ 7.79 µg/mL).

And the MIC ([4]; Pseudomonas aeruginosa, ATCC9027, read-out: Minimum Inhibitory Concentration (MIC))?
The MIC was 12.1 ± 1.1 µM (≈ 3.86 µg/mL).

What about the MBC ([4]; Pseudomonas aeruginosa, ATCC9027, read-out: Minimum bactericidal and fungicidal concentrations (MBC, MFC)) of the same compound?
The MBC was 49 ± 4.2 µM (≈ 15.6 µg/mL).

And the MIC ([5]; Bacillus cereus, Bc)?
The MIC was 24.4 ± 2.1 µM (≈ 7.79 µg/mL).

And the MBC ([5]; Bacillus cereus, read-out: Minimum bactericidal and fungicidal concentrations (MBC, MFC))?
Its MBC is 24.4 ± 2.1 µM (≈ 7.79 µg/mL).

And the MIC ([6]; Enterococcus faecalis, ATCC29212, read-out: Minimum Inhibitory Concentration (MIC))?
Its MIC is 24.4 ± 2.2 µM (≈ 7.79 µg/mL).

What about the MBC ([6]; Enterococcus faecalis, ATCC29212, read-out: Minimum bactericidal and fungicidal concentrations (MBC, MFC)) of the same compound?
Its MBC is 24.4 ± 1.9 µM (≈ 7.79 µg/mL).

What about the “Minimum Inhibitory Concentration (MIC)” value (MRSA-1) of the same compound?
The value was “–”.

What about the “Minimum bactericidal and fungicidal concentrations (MBC, MFC)” value (MRSA-1) of the same compound?
The value was “–”.

How did the MIC (MRSA-2) turn out when `CCN(CC)[P+](CCCCCC[P+](N(CC)CC)(N(CC)CC)N(CC)CC)(N(CC)CC)N(CC)CC` [compound 9, 1,6-Hexanediyl-bis(hexaethyltriaminophosphonium)dibromide] was run?
The MIC was 34.3 ± 5.3 µM.

And the MBC (MRSA-2)?
Its MBC is 137 ± 21 µM.

What about the IC50 (Hep G2 [7]) of the same compound?
The IC50 was 53.9 ± 6.9 µM.

And the “selectivity index (SI)” value (PANC-1 [8])?
Its value is 1.2.

What about the “selectivity index (SI)” value (M-HeLa [9]) of the same compound?
Its value is 1.5.

And the IC50 (DU-145 [10]; read-out: Cytotoxic Effects (IC50), DU-145, MTT assay, 48 h)?
The IC50 was 50.5 ± 6.4 µM.

And the IC50 (PANC-1 [11])?
The IC50 was 39.6 ± 5.1 µM.

And the IC50 (HuTu 80 [12])?
The IC50 was 13.1 ± 1.7 µM.

What about the IC50 (A549) of the same compound?
Its IC50 is > 100 µM.

And the “Minimum Inhibitory Concentration (MIC)” value ([1]; Ca)?
The value was “–”.

What about the “Minimum bactericidal and fungicidal concentrations (MBC, MFC)” value ([1]; Ca) of the same compound?
The value was “–”.

And the MIC [3]?
The MIC was 34.3 ± 5.4 µM.

And the MBC [3]?
Its MBC is 137 ± 21 µM.

And the “Minimum Inhibitory Concentration (MIC)” value [2]?
Its value is “–”.

And the “Minimum bactericidal and fungicidal concentrations (MBC, MFC)” value [2]?
Its value is “–”.

What about the “Minimum Inhibitory Concentration (MIC)” value [4] of the same compound?
The value was “–”.

What about the “Minimum bactericidal and fungicidal concentrations (MBC, MFC)” value [4] of the same compound?
Its value is “–”.

And the MIC ([5]; Bacillus cereus, Bc)?
Its MIC is 274 ± 48 µM.

And the “Minimum bactericidal and fungicidal concentrations (MBC, MFC)” value ([5]; Bc)?
The value was “–”.

What about the “selectivity index (SI)” value (PC3 [13]) of the same compound?
Its value is 1.3.

What about the “selectivity index (SI)” value (MCF-7 [14]) of the same compound?
Its value is 1.2.

And the “selectivity index (SI)” value (Hep G2 [15])?
The value was “ns (ns—no selectivity)”.

What about the “Minimum Inhibitory Concentration (MIC)” value [6] of the same compound?
Its value is “–”.

What about the “Minimum bactericidal and fungicidal concentrations (MBC, MFC)” value [6] of the same compound?
Its value is “–”.

What about the IC50 (PC3 [16]) of the same compound?
Its IC50 is 34.9 ± 4.5 µM.

And the IC50 (T98G)?
Its IC50 is > 100 µM.

What about the IC50 (MCF-7 [17]) of the same compound?
Its IC50 is 37.8 ± 4.8 µM.

What about the “selectivity index (SI)” value (DU-145 [18]) of the same compound?
The value was “ns (ns—no selectivity)”.

What about the MIC (MRSA-1; Staphylococcus aureus, read-out: Minimum Inhibitory Concentration (MIC)) of the same compound?
The MIC was 137 ± 19 µM.

What about the MBC (MRSA-1; Staphylococcus aureus, read-out: Minimum bactericidal and fungicidal concentrations (MBC, MFC)) of the same compound?
The MBC was 137 ± 18 µM.

And the IC50 (SK-OV-3 [19])?
Its IC50 is 36.4 ± 4.7 µM.

What about the “selectivity index (SI)” value (SK-OV-3 [20]) of the same compound?
Its value is 1.3.

What about the “selectivity index (SI)” value (HuTu 80 [21]) of the same compound?
The value was 3.5.

What about the IC50 (M-HeLa [22]) of the same compound?
The IC50 was 31.1 ± 3.9 µM.

Which IC50 (Hep G2 [7]) does the source give for `COc1cccc2c1C(=O)c1c(O)c3c(c(O)c1C2=O)C[C@@](O)(C(=O)CO)C[C@@H]3O[C@H]1C[C@H](N)[C@H](O)[C@H](C)O1` [doxorubicin, reference compound] here?
Its IC50 is 0.2 ± 0.01 µM.

And the IC50 (DU-145 [10]; read-out: Cytotoxic Effects (IC50))?
Its IC50 is 0.3 ± 0.02 µM.

What about the IC50 (PANC-1 [11]) of the same compound?
The IC50 was 2.2 ± 0.1 µM.

What about the IC50 (HuTu 80 [12]) of the same compound?
Its IC50 is 0.2 ± 0.01 µM.

And the IC50 (A549)?
Its IC50 is 0.7 ± 0.06 µM.

What about the IC50 (T98G) of the same compound?
Its IC50 is 1 ± 0.09 µM.

And the IC50 (MCF-7 [17])?
The IC50 was 0.4 ± 0.03 µM.

And the IC50 (SK-OV-3 [19])?
The IC50 was 6.7 ± 0.5 µM.

And the IC50 (M-HeLa [22])?
Its IC50 is 2.1 ± 0.1 µM.
